Target: Lethal factor protease (Bacillus anthracis, UniProt P15917)
Assay: biochemical
Conditions: LF (FRET) Ki^app

Sequence of Lethal factor protease (P15917 34-809 limits assumed): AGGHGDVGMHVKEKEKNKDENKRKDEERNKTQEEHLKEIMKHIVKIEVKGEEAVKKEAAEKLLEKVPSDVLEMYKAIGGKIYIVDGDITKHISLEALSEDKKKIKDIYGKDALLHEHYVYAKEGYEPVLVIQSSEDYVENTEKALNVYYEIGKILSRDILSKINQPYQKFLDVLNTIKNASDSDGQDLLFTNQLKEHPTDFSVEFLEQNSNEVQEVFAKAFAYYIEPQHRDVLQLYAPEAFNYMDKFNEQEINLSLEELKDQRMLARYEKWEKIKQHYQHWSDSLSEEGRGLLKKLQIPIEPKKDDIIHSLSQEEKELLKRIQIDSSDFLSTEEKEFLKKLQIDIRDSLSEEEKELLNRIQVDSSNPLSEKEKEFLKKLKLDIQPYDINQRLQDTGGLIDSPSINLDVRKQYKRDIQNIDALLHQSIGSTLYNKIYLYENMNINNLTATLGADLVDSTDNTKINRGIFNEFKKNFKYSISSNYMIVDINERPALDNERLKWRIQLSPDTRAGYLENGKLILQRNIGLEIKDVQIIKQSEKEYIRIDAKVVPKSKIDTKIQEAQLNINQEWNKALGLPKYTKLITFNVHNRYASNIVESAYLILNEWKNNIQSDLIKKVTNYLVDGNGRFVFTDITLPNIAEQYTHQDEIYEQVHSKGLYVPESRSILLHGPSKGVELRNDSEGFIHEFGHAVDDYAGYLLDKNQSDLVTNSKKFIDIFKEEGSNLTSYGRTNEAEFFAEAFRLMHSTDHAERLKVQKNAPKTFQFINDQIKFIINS

Row | SMILES | Ki [nM]
1 | CO[C@H](C[C@H](CCN1CCOCC1)C(=O)NO)c1ccc(F)cc1 [Compound 167829, (2S,4R)-4-(4-fluorophenyl)-N-hydroxy-4-methoxy-2-(2-morpholinoethyl)butanamide] | 5700
2 | CO[C@H](C[C@H](CCN1CCC(F)(F)CC1)C(=O)NO)c1ccc(F)cc1 [Compound 167884, (2S,4R)-2-(2-(4,4-difluoropiperidin-1-yl)ethyl)-4-(4-fluorophenyl)-N-hydroxy-4-methoxybutanamide] | 2200
3 | CO[C@H](C[C@H](CCN1CCCC(CO)C1)C(=O)NO)c1ccc(F)cc1 (stereo partly drawn) [Compound 167885, (2S,4R)-4-(4-fluorophenyl)-N-hydroxy-2-(2-(3-(hydroxymethyl)piperidin-1-yl)ethyl)-4-methoxybutanamide] | 760
4 | CO[C@H](C[C@H](CCN1CCCCC1)C(=O)NO)c1ccc(F)cc1 [Compound 167889, (2S,4R)-4-(4-fluorophenyl)-N-hydroxy-4-methoxy-2-(2-(piperidin-1-yl)ethyl)butanamide] | 1500
5 | CO[C@H](C[C@H](CCN(C)CCOc1ccccc1)C(=O)NO)c1ccc(F)cc1 [Compound 167890, (2S,4R)-4-(4-fluorophenyl)-N-hydroxy-4-methoxy-2-(2-(methyl(2-phenoxyethyl)amino)ethyl)butanamide] | 1600
6 | CO[C@H](C[C@H](CCN1CCc2ccccc2C1)C(=O)NO)c1ccc(F)cc1 [Compound 167891, (2S,4R)-2-(2-(3,4-dihydroisoquinolin-2(1H)-yl)ethyl)-4-(4-fluorophenyl)-N-hydroxy-4-methoxybutanamide] | 920
7 | CO[C@H](C[C@H](CCN1CCCCCC1)C(=O)NO)c1ccc(F)cc1 [Compound 167911, (2S,4R)-2-(2-(azepan-1-yl)ethyl)-4-(4-fluorophenyl)-N-hydroxy-4-methoxybutanamide] | 69500
8 | CO[C@H](C[C@H](CCN1CCCCCCC1)C(=O)NO)c1ccc(F)cc1 [Compound 167912, (2S,4R)-2-(2-(azocan-1-yl)ethyl)-4-(4-fluorophenyl)-N-hydroxy-4-methoxybutanamide] | 284000
9 | CO[C@H](C[C@H](CCN(C)CCO)C(=O)NO)c1ccc(F)cc1 [Compound 167922] | 1490
10 | CO[C@H](C[C@H](CCN1CCCC1)C(=O)NO)c1ccc(F)cc1 [Compound 167923, (2S,4R)-4-(4-fluorophenyl)-N-hydroxy-4-methoxy-2-(2-(pyrrolidin-1-yl)ethyl)butanamide] | 970
11 | CO[C@H](C[C@H](CCN1CCCC(C(=O)O)C1)C(=O)NO)c1ccc(F)cc1 (stereo partly drawn) [Compound 167924, 1-((3S,5R)-5-(4-fluorophenyl)-3-(hydroxycarbamoyl)-5-methoxypentyl)piperidine-3-carboxylic acid] | 9000
12 | CO[C@H](C[C@H](CCN1CCC(Cc2ccccc2)CC1)C(=O)NO)c1ccc(F)cc1 [Compound 167940, (2S,4R)-2-(2-(4-benzylpiperidin-1-yl)ethyl)-4-(4-fluorophenyl)-N-hydroxy-4-methoxybutanamide] | 400
13 | CO[C@H](C[C@H](CCN1CCN(C(=O)OC(C)(C)C)CC1)C(=O)NO)c1ccc(F)cc1 [Compound 167944, tert-butyl 4-((3S,5R)-5-(4-fluorophenyl)-3-(hydroxycarbamoyl)-5-methoxypentyl)piperazine-1-carboxylate] | 2500
14 | CO[C@H](C[C@H](CCN(C)CCc1ccccc1)C(=O)NO)c1ccc(F)cc1 [Compound 167952, (2S,4R)-4-(4-fluorophenyl)-N-hydroxy-4-methoxy-2-(2-(methyl(phenethyl)amino)ethyl)butanamide] | 770
15 | CO[C@H](C[C@H](CCN(C)CCCc1ccccc1)C(=O)NO)c1ccc(F)cc1 [Compound 167953, (2S,4R)-4-(4-fluorophenyl)-N-hydroxy-4-methoxy-2-(2-(methyl(3-phenylpropyl)amino)ethyl)butanamide] | 230
16 | CO[C@H](C[C@H](CCN(C)C)C(=O)NO)c1ccc(F)cc1 [Compound 167954, (2S,4R)-2-(2-(dimethylamino)ethyl)-4-(4-fluorophenyl)-N-hydroxy-4-methoxybutanamide] | 970
17 | CO[C@H](C[C@H](CCN1CCNCC1)C(=O)NO)c1ccc(F)cc1 [Compound 167955, (2S,4R)-4-(4-fluorophenyl)-N-hydroxy-4-methoxy-2-(2-(piperazin-1-yl)ethyl)butanamide] | 830
18 | CO[C@H](C[C@H](CCN1CCN(CCc2ccccc2)CC1)C(=O)NO)c1ccc(F)cc1 [Compound 167958, (2S,4R)-4-(4-fluorophenyl)-N-hydroxy-4-methoxy-2-(2-(4-phenethylpiperazin-1-yl)ethyl)butanamide] | 2400
19 | CO[C@H](C[C@H](CCN1CCN(CCCc2ccccc2)CC1)C(=O)NO)c1ccc(F)cc1 [Compound 167959, (2S,4R)-4-(4-fluorophenyl)-N-hydroxy-4-methoxy-2-(2-(4-(3-phenylpropyl)piperazin-1-yl)ethyl)butanamide] | 1000
20 | CO[C@H](C[C@H](CCN1CCN(Cc2ccc(F)c(C)c2)CC1)C(=O)NO)c1ccc(F)cc1 [Compound 167960, (2S,4R)-2-(2-(4-(4-fluoro-3-methylbenzyl)piperazin-1-yl)ethyl)-4-(4-fluorophenyl)-N-hydroxy-4-methoxybutanamide] | 970
21 | CO[C@H](C[C@H](CCN1CCN(CC2CCCCC2)CC1)C(=O)NO)c1ccc(F)cc1 [Compound 167961, (2S,4R)-2-(2-(4-(cyclohexylmethyl)piperazin-1-yl)ethyl)-4-(4-fluorophenyl)-N-hydroxy-4-methoxybutanamide] | 1800
22 | CO[C@H](C[C@H](CCN1CCN(Cc2ccccc2)CC1)C(=O)NO)c1ccc(F)cc1 [Compound 167962, (2S,4R)-2-(2-(4-benzylpiperazin-1-yl)ethyl)-4-(4-fluorophenyl)-N-hydroxy-4-methoxybutanamide] | 1900
23 | CO[C@H](C[C@H](CCN1CCN(c2ccccc2)CC1)C(=O)NO)c1ccc(F)cc1 [Compound 167986, (2S,4R)-4-(4-fluorophenyl)-N-hydroxy-4-methoxy-2-(2-(4-phenylpiperazin-1-yl)ethyl)butanamide] | 2220
24 | CO[C@H](C[C@H](CCN1CCC(c2ccccc2)CC1)C(=O)NO)c1ccc(F)cc1 [Compound 167987, (2S,4R)-4-(4-fluorophenyl)-N-hydroxy-4-methoxy-2-(2-(4-phenylpiperidin-1-yl)ethyl)butanamide] | 760
25 | CCN(CC)CC[C@@H](C[C@@H](OC)c1ccc(F)cc1)C(=O)NO [Compound 167995, (2S,4R)-2-(2-(diethylamino)ethyl)-4-(4-fluorophenyl)-N-hydroxy-4-methoxybutanamide] | 2200
26 | CO[C@H](C[C@H](CCN(Cc1ccccc1)Cc1ccccc1)C(=O)NO)c1ccc(F)cc1 [Compound 167996, (2S,4R)-2-(2-(dibenzylamino)ethyl)-4-(4-fluorophenyl)-N-hydroxy-4-methoxybutanamide] | 33400
27 | CO[C@H](C[C@H](CCN(C)c1cccc(Br)c1)C(=O)NO)c1ccc(F)cc1 [Compound 168000, (2S,4R)-2-(2-((3-bromophenyl)(methyl)amino)ethyl)-4-(4-fluorophenyl)-N-hydroxy-4-methoxybutanamide] | 2800
28 | CO[C@H](C[C@H](CCN(C)Cc1cccc(Br)c1)C(=O)NO)c1ccc(F)cc1 [Compound 168001, (2S,4R)-2-(2-((3-bromobenzyl)(methyl)amino)ethyl)-4-(4-fluorophenyl)-N-hydroxy-4-methoxybutanamide] | 1200
